≈ marks a conversion by molar mass, not a printed value.
Experiments:
HCT-116 = assay: Inhibitory activity against HCT116 cells after 24 hr cell growth; format: functional, cell-based; settings: Homo sapiens, HCT-116, 24 h
MCF7S = assay: Inhibitory activity against MCF-7 cells after 72 hr cell growth; format: functional, cell-based; settings: Homo sapiens
NCI/ADR-RES = assay: Inhibitory activity against MCF7-ADR cells after 72 hr cell growth; format: functional, cell-based; settings: Homo sapiens
Tubulin = assay: Concentration required to reduce the amount of pelleted tubulin; format: protein-complex assay
KB = assay: Cytotoxicity against KB cells; format: functional, cell-based; settings: Homo sapiens

SMILES | IC50 (HCT-116) | IC50 (MCF7S) | IC50 (NCI/ADR-RES) | IC50 (Tubulin) | IC50 (KB)
COc1ccc(C[C@H]2NC(=O)/C=C/C[C@@H]([C@H](C)[C@H]3O[C@@H]3c3ccc(C(=O)c4ccccc4)cc3)OC(=O)[C@H](CC(C)C)OC(=O)CCNC2=O)cc1 | 1.1 nM | 0.078 nM | 70 nM | 7400 nM | 
COc1ccc(C[C@H]2NC(=O)/C=C/C[C@@H]([C@H](C)[C@@H]3O[C@@H]3c3ccc(C(=O)c4ccccc4)cc3)OC(=O)[C@H](CC(C)C)OC(=O)CCNC2=O)cc1 | 253 nM | 6 nM | 447 nM | > 100000 nM | 
COc1ccc(C[C@H]2NC(=O)/C=C/C[C@@H]([C@H](C)[C@H]3O[C@@H]3c3ccccc3)OC(=O)[C@H](CC(C)C)OC(=O)CCNC2=O)cc1 [ARENASTATIN A] | 0.285 nM | 0.13 nM | 0.164 nM | 15000 nM | 0.005 ng/mL (≈ 0.00824 nM)
COc1ccc(C[C@H]2NC(=O)/C=C/C[C@@H]([C@H](C)[C@H]3O[C@@H]3c3ccccc3)OC(=O)[C@H](CC(C)C)OC(=O)[C@H](C)CNC2=O)cc1Cl [CRYPTOPHYCIN A] | 0.027 nM | 0.003 nM | 0.013 nM | 3700 nM | 

From ChEMBL document CHEMBL1136604, “Cryptophycin affinity labels: synthesis and biological activity of a benzophenone analogue of cryptophycin-24” (Bioorg Med Chem Lett, 2003)
